The source of these data is ChEMBL document CHEMBL1201862, “PubChem BioAssay data set” (2004).

A word on the EC50: it is the concentration at which the effect is half-maximal. By CC50 is commonly meant the concentration that lowers cell viability or growth by half. In general, Ki refers to a dissociation constant, usually derived from enzyme kinetics or from competition with a known ligand. The term AC50 denotes the concentration giving half of the maximal activity seen.

Among the targets are Aurora kinase B (Homo sapiens, UniProt Q96GD4); Focal adhesion kinase 1 (Homo sapiens, UniProt Q05397); Aurora kinase A (Homo sapiens, UniProt O14965).
Common to all, as to assay type: functional
Test [1] concerns the target Sphingosine 1-phosphate receptor 2 (Homo sapiens, UniProt O95136). Kind of test: Late-stage fluorescence-based dose-response cell-based counterscreen assay to identify agonists of the Sphingosine 1-Phosphate Receptor 3 (S1P3): Sphingosine 1-Phosphate Receptor 2 (S1P2) agonist assay. In general terms: The purpose of a counterscreen is to sort out artefacts and off-target activity.

The target of test [2] is Sphingosine 1-phosphate receptor 4 (Homo sapiens, UniProt O95977). The experiment in a line: Late-stage fluorescence-based dose-response cell-based counterscreen assay to identify agonists of the Sphingosine 1-Phosphate Receptor 3 (S1P3): Sphingosine 1-Phosphate Receptor 4 (S1P4) agonist assay.
Test [3] has as its target Sphingosine 1-phosphate receptor 5 (Homo sapiens, UniProt Q9H228). Kind of test: Late-stage fluorescence-based dose-response cell-based counterscreen assay to identify agonists of the Sphingosine 1-Phosphate Receptor 3 (S1P3): Sphingosine 1-Phosphate Receptor 5 (S1P5) agonist assay.
The nature of test [4]: Late-stage assay provider results from the probe development effort to identify agonists of the Sphingosine 1-Phosphate Receptor 3 (S1P3): luminescence-based cell-based dose response counterscreen assay to determine cytotoxicity of agonist compounds.
For test [5], the target named is Serine/threonine-protein kinase D3 (Homo sapiens, UniProt O94806).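 Also: determined within a kinase panel screen, with PRKCN as the panel member.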
For test [6], the target named is Glycogen synthase kinase-3 alpha (Homo sapiens, UniProt P49840).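 Also: GSK3A result taken from a broad kinome-wide kinase panel.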
For test [7], the target named is Serine/threonine-protein kinase pim-1 (Homo sapiens, UniProt P11309).
The target of test [8] is Cyclin-dependent kinase 7 (Homo sapiens, UniProt P50613).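 Also: value comes from a kinome-wide kinase profiling panel in which CDK7 is one member.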
Test [9] concerns the target Serine/threonine-protein kinase PAK 4 (Homo sapiens, UniProt O96013).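 Also: value obtained within a kinome profiling panel in which PAK4 was one of the panel members.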
Test [10] addresses T1, Tyrosine-protein kinase JAK3 (Homo sapiens, UniProt P52333).
T1 sequence (P52333 whole entry): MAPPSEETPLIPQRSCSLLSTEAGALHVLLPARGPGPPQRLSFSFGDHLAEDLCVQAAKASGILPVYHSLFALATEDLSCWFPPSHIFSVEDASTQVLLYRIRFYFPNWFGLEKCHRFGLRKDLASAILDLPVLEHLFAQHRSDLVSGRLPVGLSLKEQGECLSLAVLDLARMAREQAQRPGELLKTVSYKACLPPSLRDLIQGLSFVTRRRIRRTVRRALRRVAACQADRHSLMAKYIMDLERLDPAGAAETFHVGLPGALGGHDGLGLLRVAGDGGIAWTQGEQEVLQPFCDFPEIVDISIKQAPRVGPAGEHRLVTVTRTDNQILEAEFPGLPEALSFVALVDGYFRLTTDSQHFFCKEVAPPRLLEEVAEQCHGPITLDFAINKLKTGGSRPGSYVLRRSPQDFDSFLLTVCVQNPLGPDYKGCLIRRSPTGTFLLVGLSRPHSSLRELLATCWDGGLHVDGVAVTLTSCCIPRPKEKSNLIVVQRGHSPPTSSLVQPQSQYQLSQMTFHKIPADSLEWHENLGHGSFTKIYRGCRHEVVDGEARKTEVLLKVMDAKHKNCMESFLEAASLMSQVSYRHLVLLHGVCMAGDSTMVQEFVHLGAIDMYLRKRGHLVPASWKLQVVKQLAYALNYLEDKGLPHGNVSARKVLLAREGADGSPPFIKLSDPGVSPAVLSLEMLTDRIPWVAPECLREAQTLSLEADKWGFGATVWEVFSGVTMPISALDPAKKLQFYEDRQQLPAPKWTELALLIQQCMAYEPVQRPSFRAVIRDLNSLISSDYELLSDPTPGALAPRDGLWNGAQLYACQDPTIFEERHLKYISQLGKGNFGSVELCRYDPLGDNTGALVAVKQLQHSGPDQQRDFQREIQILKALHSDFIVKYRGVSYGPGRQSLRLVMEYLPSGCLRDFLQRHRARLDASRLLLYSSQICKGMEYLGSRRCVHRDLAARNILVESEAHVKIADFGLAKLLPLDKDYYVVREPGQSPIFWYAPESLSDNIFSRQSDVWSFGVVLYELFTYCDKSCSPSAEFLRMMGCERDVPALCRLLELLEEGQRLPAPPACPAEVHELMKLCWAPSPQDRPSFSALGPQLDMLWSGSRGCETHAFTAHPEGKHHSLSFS

In test [11] the target is Tyrosine-protein kinase Lck (Homo sapiens, UniProt P06239).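 Also: lck was assayed as one member of a kinase panel.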
Test [12] has as its target G protein-coupled receptor kinase 5 (Homo sapiens, UniProt P34947). The experiment in a line: Navigating the Kinome. Panel member name: GPRK5.
Test [13] addresses Mitogen-activated protein kinase kinase kinase kinase 4 (Homo sapiens, UniProt O95819).
The target in test [14] is Mitogen-activated protein kinase 14 (Homo sapiens, UniProt Q16539).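 Also: part of a kinome-wide panel, MAPK14 entry.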
The target of test [15] is Tyrosine-protein kinase BTK (Homo sapiens, UniProt Q06187).
Test [16] deals with Calcium/calmodulin-dependent protein kinase type II subunit alpha (Homo sapiens, UniProt Q9UQM7). Kind of test: Navigating the Kinome. Panel member name: CAMK2A.
For test [17], the target named is Fibroblast growth factor receptor 1 (Homo sapiens, UniProt P11362).
The target of another test is Activin receptor type-1 (Homo sapiens, UniProt Q04771). Kind of test: Navigating the Kinome. Panel member name: ACVR1.
Test [18] addresses Cyclin-dependent kinase 8 (Homo sapiens, UniProt P49336). Kind of test: Navigating the Kinome. Panel member name: CDK8.
Test [19] deals with Casein kinase I isoform alpha (Homo sapiens, UniProt P48729).
For test [20], the target named is Tyrosine-protein kinase Fyn (Homo sapiens, UniProt P06241).
The target in test [21] is Serine/threonine-protein kinase TAO1 (Homo sapiens, UniProt Q7L7X3).
The target of test [22] is Death-associated protein kinase 3 (Homo sapiens, UniProt O43293).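 Also: measured as one member of a kinome-wide profiling panel.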
In test [23] the target is Mitogen-activated protein kinase 8 (Homo sapiens, UniProt P45983).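 Also: value comes from one member of a kinome-wide kinase profiling panel.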
In test [24] the target is T2, Serine/threonine-protein kinase Chk1 (Homo sapiens, UniProt O14757).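 Also: measured as one member of a kinome-wide kinase profiling panel.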
T2 sequence (O14757 whole entry): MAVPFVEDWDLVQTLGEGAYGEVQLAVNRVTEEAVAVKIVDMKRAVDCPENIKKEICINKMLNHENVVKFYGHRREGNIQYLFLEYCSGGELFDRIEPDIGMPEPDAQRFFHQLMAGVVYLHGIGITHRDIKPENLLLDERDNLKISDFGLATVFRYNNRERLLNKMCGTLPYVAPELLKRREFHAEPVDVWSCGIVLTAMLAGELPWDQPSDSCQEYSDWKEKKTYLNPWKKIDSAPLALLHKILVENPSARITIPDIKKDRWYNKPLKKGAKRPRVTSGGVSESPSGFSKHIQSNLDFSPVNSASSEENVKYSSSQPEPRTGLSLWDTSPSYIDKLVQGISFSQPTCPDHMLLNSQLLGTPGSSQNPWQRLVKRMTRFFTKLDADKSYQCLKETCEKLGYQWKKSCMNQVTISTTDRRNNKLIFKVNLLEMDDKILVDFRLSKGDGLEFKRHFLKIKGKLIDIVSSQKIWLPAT

Test [25] concerns the target ALK tyrosine kinase receptor (Homo sapiens, UniProt Q9UM73).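 Also: ALK tested as one member of a kinase panel screen.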
Another test addresses Activated CDC42 kinase 1 (Homo sapiens, UniProt Q07912). Kind of test: Navigating the Kinome. Panel member name: ACK1.
Test [26] addresses Dual specificity protein kinase CLK2 (Homo sapiens, UniProt P49760).
For test [27], the target named is Calcium/calmodulin-dependent protein kinase type II subunit gamma (Homo sapiens, UniProt Q13555).
For test [28], the target named is Serine/threonine-protein kinase pim-3 (Homo sapiens, UniProt Q86V86).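 Also: value obtained as one member of a broad kinase panel profiling effort.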
Test [29] addresses Calcium/calmodulin-dependent protein kinase type II subunit beta (Homo sapiens, UniProt Q13554).
The target in test [30] is Calcium/calmodulin-dependent protein kinase type II subunit delta (Homo sapiens, UniProt Q13557).
For test [31], the target named is Interleukin-1 receptor-associated kinase 1 (Homo sapiens, UniProt P51617).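 Also: IRAK1 tested as one member of a kinome panel.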
In test [32] the target is DNA dC->dU-editing enzyme APOBEC-3G (Homo sapiens, UniProt Q9HC16). The experiment in a line: SAR analysis of small molecule inhibitors of APOBEC3G DNA Deaminase via a fluorescence-based single-stranded DNA deaminase assay - Set 2. The settings on record: read-out: IC50_Mean.
The target of test [33] is DNA dC->dU-editing enzyme APOBEC-3A (Homo sapiens, UniProt P31941). Kind of test: SAR analysis of small molecule inhibitors of APOBEC3A DNA Deaminase via a fluorescence-based single-stranded DNA deaminase assay - Set 2. The settings on record: read-out: IC50_Mean.
Test [34] addresses Mitogen-activated protein kinase 13 (Homo sapiens, UniProt O15264).
Test [35] in a line: non-specific 3'UTR reporter inhibition in Clone20-Shn3RL – cell-based, Renilla luciferase, cherry-picked, counter-screen for Shn3 inhibitor project, dose response (AID 624133).
Test [36] concerns the target Tyrosine-protein kinase SYK (Homo sapiens, UniProt P43405).
Test [37] deals with cAMP-dependent protein kinase catalytic subunit alpha (Homo sapiens, UniProt P17612).
The nature of test [38]: viability of uninfected HEp-2 cells – cell-based, HTS, cytotoxicity control for RSV inhibitor project, dose response (AID 2410). The settings on record: human respiratory syncytial virus.
The target of test [39] is STE20-like serine/threonine-protein kinase (Homo sapiens, UniProt Q9H2G2).
Test [40] in a line: loss of viability in HepG2 cells – cell-based, CellTiter-Glo, cherry-picked, cytotoxicity control for Shn3 inhibitor project, dose response (AID 624134).
Test [41] concerns the target Maternal embryonic leucine zipper kinase (Homo sapiens, UniProt Q14680).
Test [42] has as its target Testis-specific serine/threonine-protein kinase 2 (Homo sapiens, UniProt Q96PF2).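 Also: part of the Navigating the Kinome panel, target entry STK22B.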
For test [43], the target named is Tyrosine-protein kinase ITK/TSK (Homo sapiens, UniProt Q08881).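 Also: affinity for ITK measured as one member of a broad kinase panel profiling binding across the kinome.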
Test [44] is described as follows: reduction of Shn3 3'UTR-driven luciferase in osteoblasts – cell-based, Clone20 osteoblasts, firefly luciferase, cherry-picked, dose response (AID 624132).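 Also: firefly luciferase luminescence from reporter carrying the Shn3 3'UTR in osteoblasts.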
For test [45], the target named is Tyrosine-protein kinase Fer (Homo sapiens, UniProt P16591).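 Also: FER tested as one member of a kinome panel.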
Test [46] concerns the target Testis-specific serine/threonine-protein kinase 1 (Homo sapiens, UniProt Q9BXA7).
Test [47] concerns the target Serine/threonine-protein kinase pim-2 (Homo sapiens, UniProt Q9P1W9).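 Also: value comes from a broad kinase panel profiling study in which PIM2 was one of the panel members.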
The target in test [48] is cAMP-dependent protein kinase catalytic subunit PRKX (Homo sapiens, UniProt P51817).

The source made the active and inactive calls.

Sequence of Focal adhesion kinase 1 (Q05397 whole entry): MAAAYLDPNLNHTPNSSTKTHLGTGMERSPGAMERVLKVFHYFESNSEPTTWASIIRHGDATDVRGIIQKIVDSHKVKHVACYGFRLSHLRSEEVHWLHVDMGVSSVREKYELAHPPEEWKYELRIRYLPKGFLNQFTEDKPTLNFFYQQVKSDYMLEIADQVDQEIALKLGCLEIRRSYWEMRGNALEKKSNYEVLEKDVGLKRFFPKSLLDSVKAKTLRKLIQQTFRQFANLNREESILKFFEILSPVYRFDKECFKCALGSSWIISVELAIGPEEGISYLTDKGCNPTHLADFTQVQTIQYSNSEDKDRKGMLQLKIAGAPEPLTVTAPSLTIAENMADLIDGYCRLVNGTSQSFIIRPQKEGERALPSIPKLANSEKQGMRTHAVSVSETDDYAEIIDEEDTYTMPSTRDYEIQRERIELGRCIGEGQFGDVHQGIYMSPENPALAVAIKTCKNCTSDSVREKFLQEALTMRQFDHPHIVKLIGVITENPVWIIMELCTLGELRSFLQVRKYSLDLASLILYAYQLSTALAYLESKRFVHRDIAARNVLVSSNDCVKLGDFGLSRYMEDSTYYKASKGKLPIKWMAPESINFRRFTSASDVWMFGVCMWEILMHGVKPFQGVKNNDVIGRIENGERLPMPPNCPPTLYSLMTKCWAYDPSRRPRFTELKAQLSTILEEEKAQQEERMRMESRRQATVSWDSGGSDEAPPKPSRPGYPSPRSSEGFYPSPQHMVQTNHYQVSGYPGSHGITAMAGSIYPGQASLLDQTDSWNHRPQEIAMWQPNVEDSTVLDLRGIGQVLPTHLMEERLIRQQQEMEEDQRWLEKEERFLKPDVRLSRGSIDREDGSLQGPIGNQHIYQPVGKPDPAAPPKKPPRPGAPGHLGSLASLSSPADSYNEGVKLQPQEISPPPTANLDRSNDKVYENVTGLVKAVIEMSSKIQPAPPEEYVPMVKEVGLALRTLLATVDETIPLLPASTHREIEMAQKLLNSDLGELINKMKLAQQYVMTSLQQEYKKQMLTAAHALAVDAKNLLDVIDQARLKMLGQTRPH
Sequence of Serine/threonine-protein kinase pim-1 (P11309 whole entry): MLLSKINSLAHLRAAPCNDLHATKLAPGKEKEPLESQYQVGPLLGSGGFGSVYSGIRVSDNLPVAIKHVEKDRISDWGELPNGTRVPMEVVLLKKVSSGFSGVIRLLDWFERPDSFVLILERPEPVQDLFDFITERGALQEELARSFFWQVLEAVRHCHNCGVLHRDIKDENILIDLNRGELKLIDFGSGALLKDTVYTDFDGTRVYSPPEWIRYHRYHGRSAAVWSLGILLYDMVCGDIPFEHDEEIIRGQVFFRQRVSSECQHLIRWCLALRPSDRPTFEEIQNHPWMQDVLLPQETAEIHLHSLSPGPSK
Sequence of Serine/threonine-protein kinase D3 (O94806 whole entry): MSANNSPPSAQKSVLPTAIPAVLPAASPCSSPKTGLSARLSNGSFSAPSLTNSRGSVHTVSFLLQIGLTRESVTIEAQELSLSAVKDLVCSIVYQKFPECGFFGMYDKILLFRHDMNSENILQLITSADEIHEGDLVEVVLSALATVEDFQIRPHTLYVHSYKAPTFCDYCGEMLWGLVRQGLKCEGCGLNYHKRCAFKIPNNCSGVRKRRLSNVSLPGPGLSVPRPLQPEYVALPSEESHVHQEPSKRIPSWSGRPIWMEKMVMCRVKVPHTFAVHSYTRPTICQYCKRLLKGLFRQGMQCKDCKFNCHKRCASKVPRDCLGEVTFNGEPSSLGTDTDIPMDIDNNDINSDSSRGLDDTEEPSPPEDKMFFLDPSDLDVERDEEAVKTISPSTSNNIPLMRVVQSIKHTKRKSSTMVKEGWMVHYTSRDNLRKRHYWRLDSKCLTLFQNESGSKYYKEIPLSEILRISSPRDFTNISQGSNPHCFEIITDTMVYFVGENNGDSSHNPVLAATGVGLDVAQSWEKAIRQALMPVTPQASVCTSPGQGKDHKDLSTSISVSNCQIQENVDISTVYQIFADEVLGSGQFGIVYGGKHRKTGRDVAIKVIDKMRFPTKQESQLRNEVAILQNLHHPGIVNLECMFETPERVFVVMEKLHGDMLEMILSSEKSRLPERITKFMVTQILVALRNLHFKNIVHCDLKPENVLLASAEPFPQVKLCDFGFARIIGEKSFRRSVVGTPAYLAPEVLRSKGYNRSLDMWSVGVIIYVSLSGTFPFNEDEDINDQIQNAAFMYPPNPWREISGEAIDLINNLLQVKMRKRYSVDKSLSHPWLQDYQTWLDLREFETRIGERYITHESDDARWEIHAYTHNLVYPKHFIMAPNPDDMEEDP
Sequence of Cyclin-dependent kinase 8 (P49336 whole entry, canonical isoform): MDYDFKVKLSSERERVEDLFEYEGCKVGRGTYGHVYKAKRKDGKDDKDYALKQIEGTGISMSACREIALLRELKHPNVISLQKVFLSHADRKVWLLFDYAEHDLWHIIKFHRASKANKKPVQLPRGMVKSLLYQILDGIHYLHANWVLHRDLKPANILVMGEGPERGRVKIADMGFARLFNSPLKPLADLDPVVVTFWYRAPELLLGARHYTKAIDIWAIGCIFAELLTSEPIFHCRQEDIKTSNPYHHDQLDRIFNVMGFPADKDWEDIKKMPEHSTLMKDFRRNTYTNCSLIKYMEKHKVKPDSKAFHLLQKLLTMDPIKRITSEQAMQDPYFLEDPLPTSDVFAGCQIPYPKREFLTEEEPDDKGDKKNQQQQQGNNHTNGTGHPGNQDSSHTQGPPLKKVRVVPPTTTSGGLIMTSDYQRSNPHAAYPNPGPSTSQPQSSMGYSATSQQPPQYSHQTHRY
Sequence of Calcium/calmodulin-dependent protein kinase type II subunit alpha (Q9UQM7 whole entry): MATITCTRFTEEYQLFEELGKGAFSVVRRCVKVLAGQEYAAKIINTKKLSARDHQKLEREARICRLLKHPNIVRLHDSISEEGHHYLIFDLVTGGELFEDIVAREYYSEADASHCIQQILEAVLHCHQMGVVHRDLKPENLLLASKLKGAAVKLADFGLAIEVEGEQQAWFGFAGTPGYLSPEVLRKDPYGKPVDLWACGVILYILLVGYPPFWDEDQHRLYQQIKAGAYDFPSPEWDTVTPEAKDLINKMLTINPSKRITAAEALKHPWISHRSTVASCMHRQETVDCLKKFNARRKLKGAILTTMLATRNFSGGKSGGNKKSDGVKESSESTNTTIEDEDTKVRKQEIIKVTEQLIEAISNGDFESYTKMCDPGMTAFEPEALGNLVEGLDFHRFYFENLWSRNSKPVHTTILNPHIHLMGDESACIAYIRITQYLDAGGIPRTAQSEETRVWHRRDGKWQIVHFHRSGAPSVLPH
Sequence of Cyclin-dependent kinase 7 (P50613 whole entry): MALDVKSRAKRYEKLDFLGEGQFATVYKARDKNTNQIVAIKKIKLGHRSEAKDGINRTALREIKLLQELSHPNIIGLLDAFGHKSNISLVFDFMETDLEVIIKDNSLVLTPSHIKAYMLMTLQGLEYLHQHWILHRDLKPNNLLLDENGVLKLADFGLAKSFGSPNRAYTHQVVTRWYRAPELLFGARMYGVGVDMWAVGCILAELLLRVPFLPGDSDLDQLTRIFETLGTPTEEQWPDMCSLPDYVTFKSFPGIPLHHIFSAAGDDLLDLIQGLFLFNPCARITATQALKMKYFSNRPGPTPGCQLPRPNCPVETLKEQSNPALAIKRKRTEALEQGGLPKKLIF
Sequence of Sphingosine 1-phosphate receptor 2 (O95136 whole entry): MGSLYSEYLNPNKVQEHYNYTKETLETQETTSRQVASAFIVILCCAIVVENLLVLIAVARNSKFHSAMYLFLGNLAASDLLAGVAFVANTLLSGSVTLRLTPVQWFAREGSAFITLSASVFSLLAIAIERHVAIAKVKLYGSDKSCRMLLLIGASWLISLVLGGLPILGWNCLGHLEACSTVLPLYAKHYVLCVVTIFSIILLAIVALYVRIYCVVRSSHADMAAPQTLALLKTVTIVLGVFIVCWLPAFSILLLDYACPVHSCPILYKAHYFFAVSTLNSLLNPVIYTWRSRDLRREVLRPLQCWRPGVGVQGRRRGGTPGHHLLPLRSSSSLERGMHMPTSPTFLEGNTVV
Sequence of G protein-coupled receptor kinase 5 (P34947 whole entry): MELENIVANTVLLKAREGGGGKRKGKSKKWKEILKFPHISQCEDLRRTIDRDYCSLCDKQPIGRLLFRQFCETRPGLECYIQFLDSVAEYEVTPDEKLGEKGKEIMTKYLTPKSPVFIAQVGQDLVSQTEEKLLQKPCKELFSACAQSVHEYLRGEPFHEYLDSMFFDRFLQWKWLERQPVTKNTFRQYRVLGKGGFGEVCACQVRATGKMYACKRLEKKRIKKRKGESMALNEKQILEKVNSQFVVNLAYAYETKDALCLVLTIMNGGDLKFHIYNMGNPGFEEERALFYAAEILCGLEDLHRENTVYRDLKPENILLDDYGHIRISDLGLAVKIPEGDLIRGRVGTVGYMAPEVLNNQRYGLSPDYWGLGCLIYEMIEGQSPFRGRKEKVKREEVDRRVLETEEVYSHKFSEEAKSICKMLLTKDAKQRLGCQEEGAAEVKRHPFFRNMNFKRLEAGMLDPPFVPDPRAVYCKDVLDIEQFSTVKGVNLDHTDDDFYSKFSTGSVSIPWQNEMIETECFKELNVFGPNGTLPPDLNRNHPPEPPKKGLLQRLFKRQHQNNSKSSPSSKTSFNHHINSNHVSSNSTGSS
Sequence of Mitogen-activated protein kinase 13 (O15264 whole entry): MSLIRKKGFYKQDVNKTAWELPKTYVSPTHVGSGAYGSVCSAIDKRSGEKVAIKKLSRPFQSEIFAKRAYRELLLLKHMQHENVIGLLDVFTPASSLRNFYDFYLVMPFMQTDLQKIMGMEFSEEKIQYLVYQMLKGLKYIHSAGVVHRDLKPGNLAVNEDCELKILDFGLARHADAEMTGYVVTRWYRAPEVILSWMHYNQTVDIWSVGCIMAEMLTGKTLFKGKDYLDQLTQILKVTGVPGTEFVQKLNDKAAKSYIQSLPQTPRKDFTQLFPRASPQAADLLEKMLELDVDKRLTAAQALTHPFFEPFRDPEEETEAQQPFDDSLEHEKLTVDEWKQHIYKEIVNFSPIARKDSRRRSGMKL

In the case of `O=C(c1cc(C2CC2)on1)N(C1CCCCC1)C1CCCCC1`, the results for the EC50 in test [1], in test [2] and in [3] were > 50 µM (inactive), > 50 µM (inactive) and > 25 µM (inactive), respectively. The CC50 in test [4] is > 10 µM (inactive).
In the case of `CCOC(=O)Cc1nc2c(N)cccc2[nH]1`, the Ki in [5] is > 3.98 µM (inactive); in test [6], > 3.98 µM (inactive); in test [7], > 6.31 µM (inactive); in test [8], > 3.98 µM (inactive); in test [9] it was > 5.01 µM (inactive); on Aurora kinase B it was > 3.98 µM (inactive). Further, the Ki in test [10] was > 5.01 µM (inactive); in [11], > 6.31 µM (inactive); in [12], > 3.98 µM (inactive); in [13], > 5.01 µM (inactive); in [14], > 3.98 µM (inactive); in test [15], > 6.31 µM (inactive). In addition, the Ki in test [16] was > 3.98 µM (inactive); in test [17], > 3.98 µM (inactive); on Activin receptor type-1, > 3.98 µM (inactive); in [18], > 3.98 µM (inactive); in test [19], > 3.98 µM (inactive); in [20] it was > 6.31 µM (inactive). For the same molecule, the Ki is > 6.31 µM (inactive) in [21]; > 5.01 µM (inactive) in [22]; > 5.01 µM (inactive) in [23]; 0.398 µM (active) in test [24]; > 6.31 µM (inactive) in [25]; > 3.98 µM (inactive) at Activated CDC42 kinase 1. Moreover, the figures for the Ki (on Focal adhesion kinase 1; in [26]) were > 6.31 µM (inactive) and > 3.98 µM (inactive), respectively.
As to `CCOC(=O)c1cn(-c2ccc(O)cc2C)c2cc(-c3ccccc3)ccc2c1=O`, the inhibitory constant (Ki) in test [27] was 3.98 µM (active); in [7] it was 1.26 µM (active); in test [28] it was 3.16 µM (active); in [29], 5.01 µM (active); in test [30], 5.01 µM (active); in [31], 7.94 µM (active).
Take `CSc1nnc2n(CCC(C)C)c(=O)c3ccccc3n12`: the IC50 in [32] and in test [33] was > 99 µM (inactive) each time.
In the case of `Cc1ccc(-c2nn(C(C)(C)C)c3ncnc(N)c23)cc1`, the Ki is > 7.94 µM (inactive) in test [34]; > 1.58 µM (inactive) in test [36]; > 1.58 µM (inactive) at Aurora kinase A; > 1.58 µM (inactive) in [10]; 1.58 µM (active) in [37]; 1.58 µM (active) in test [39]. In addition, the Ki (in test [41]; in test [42]; in test [43]; in test [45]; at Focal adhesion kinase 1; in [46]) was > 1.58 µM (inactive) throughout. Further, the Ki in [47] and in test [48] was > 1.58 µM (inactive) throughout. Also, the figures for the concentration at half-maximal activity (AC50) in [35], in [40] and in [44] were 1.97 µM (active), > 70 µM (inactive) and 5.89 µM (active), respectively. The CC50 in test [38] was 9.91 µM (active).
